Experimental data: US8691789B2, “Probe of iodine-123 marker thymidine (FLT)analogue [123I]-IaraU” (Atomic Energy Council-Institute of Nuclear Research, priority 2012, dated 2014)
“Also recorded” adds a separate entry of the source.

Columns and labels:
Assay type in all cases: cell-based
NG4TL4-wild type cells = experiment: cellular uptake experiment of [^123I]-IaraU in NG4TL4-wild type cells
Description: (§1) Please refer to FIG. 3 which is a schematic view of experimental results of cell absorption of [^123I]-IaraU according to the invention. As shown, the present invention utilizes the above synthesized iodine-123 marker FLT analogue for in vitro experiments which totally use cells of NG4TL4-wild type, NG4TL4-HSVtk, NG4TL4-sr39tk. They are cultivated in the DMEM (Dulbecco's Modified Eagle's Medium) medium containing 10% fetal bovine serum at 37° C. and in the environment having 5% carbon dioxide. Then they are planted in 96-well plate at the proportion of 1×10^5 cells/well for 12 hours, and then subjected to biological experiments.
(§2) Before the cellular uptake experiment starts, 1 mCi of the above [^123I]-IaraU 8 or [^18F]-FLT (from INER) is thoroughly mixed with 50 ml of serum-free DMEM medium. The cultivated medium on the 96-well plate is drained out, and the aforementioned cultivated medium mixed with radioactive material is immediately added material with the ratio of 200 μl/well. The cells to which the cultivated medium has been added are placed back to an incubator of 5% CO2 at 37° C. […] Finally, a Gamma-Counter is used to measure the radioactivity of cytoplasm for each individual supernatant. The formula for analysis is as follows: (Radioactivity of cytoplasm/Activity as whole)×100%.

NG4TL4-sr39tk cells = experiment: cellular uptake experiment of [^123I]-IaraU in NG4TL4-sr39tk cells
Description: as §1, §2

NG4TL4-HSVtk cells = experiment: cellular uptake experiment of [^123I]-IaraU in NG4TL4-HSVtk cells
Description: as §1, §2

[1] = after five hours, % of the total amount
[2] = time points 0.25, 0.5, 1.5, 3 and 5 hours

For `O=c1[nH]c(=O)n([C@@H]2O[C@H](CO)C(O)C2O)cc1[123I]` (stereo partly drawn) [[^123I]-IaraU, 1-(β-D-arabinofuranosyl)-5-[^123I]iodopyrimidin-2,4(3H)-dione], the “maximum intake (radioactivity of cytoplasm/activity as whole ×100%)” value (NG4TL4-wild type cells; [1]) was “not more than 10%”, the “cellular uptake over time (in words)” value (NG4TL4-wild type cells; [2]) was “no significant intake; also recorded: no significant increase in quantity” and the “maximum intake (radioactivity of cytoplasm/activity as whole ×100%)” value (NG4TL4-sr39tk cells; [1]) was “not more than 10%”. For the same compound, the “cellular uptake over time (in words)” value (NG4TL4-sr39tk cells; [2]) was “no significant intake; also recorded: no significant increase in quantity”, the “maximum intake (radioactivity of cytoplasm/activity as whole ×100%)” value (NG4TL4-HSVtk cells; [1]) was “not more than 10%” and the “cellular uptake over time (in words)” value (NG4TL4-HSVtk cells; [2]) was “no significant intake; also recorded: no significant increase in quantity”.
